PubChem BioAssay (NCI)
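How tested: cells in 96-well plates exposed to compound for 48 hours at five concentrations. The concentration for full growth arrest is given as TGI.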

How the values were obtained:
Assay in all cases: DTP human tumour cell line panel, 48 h
786-0 renal = system: 786-0 renal
A498 renal = system: A498 renal
A549 NSCLC = system: A549 NSCLC
ACHN renal = system: ACHN renal
BT-549 breast = system: BT-549 breast
CAKI-1 renal = system: CAKI-1 renal
CCRF-CEM leukemia = system: CCRF-CEM leukemia
COLO 205 colon = system: COLO 205 colon
DU-145 prostate = system: DU-145 prostate
EKVX NSCLC = system: EKVX NSCLC
HCC-2998 colon = system: HCC-2998 colon
HCT-116 colon = system: HCT-116 colon
HCT-15 colon = system: HCT-15 colon
HOP-62 NSCLC = system: HOP-62 NSCLC
HS 578T breast = system: HS 578T breast
HT29 colon = system: HT29 colon
IGROV1 ovarian = system: IGROV1 ovarian
K-562 leukemia = system: K-562 leukemia
LOX IMVI melanoma = system: LOX IMVI melanoma
M14 melanoma = system: M14 melanoma
MALME-3M melanoma = system: MALME-3M melanoma
MDA-MB-231 breast = system: MDA-MB-231 breast
MDA-MB-435 = system: MDA-MB-435
MDA-N = system: MDA-N
MOLT-4 leukemia = system: MOLT-4 leukemia
NCI-H23 lung = system: NCI-H23 lung
NCI-H460 lung = system: NCI-H460 lung
NCI-H522 lung = system: NCI-H522 lung
NCI/ADR-RES ovarian = system: NCI/ADR-RES ovarian
OVCAR-3 ovarian = system: OVCAR-3 ovarian
OVCAR-4 ovarian = system: OVCAR-4 ovarian
OVCAR-8 ovarian = system: OVCAR-8 ovarian
PC-3 prostate = system: PC-3 prostate
RXF 393 renal = system: RXF 393 renal
SF-268 CNS = system: SF-268 CNS
SF-295 CNS = system: SF-295 CNS
SF-539 CNS = system: SF-539 CNS
SK-MEL-28 melanoma = system: SK-MEL-28 melanoma
SK-MEL-5 melanoma = system: SK-MEL-5 melanoma
SK-OV-3 ovarian = system: SK-OV-3 ovarian
SN12C renal = system: SN12C renal
SNB-19 CNS = system: SNB-19 CNS
SNB-75 CNS = system: SNB-75 CNS
SW-620 colon = system: SW-620 colon
T-47D breast = system: T-47D breast
TK-10 renal = system: TK-10 renal
U251 CNS = system: U251 CNS
UACC-257 melanoma = system: UACC-257 melanoma
UACC-62 melanoma = system: UACC-62 melanoma
UO-31 renal = system: UO-31 renal
HL-60(TB) leukemia = system: HL-60(TB) leukemia
HOP-92 NSCLC = system: HOP-92 NSCLC
KM12 colon = system: KM12 colon
MCF7 breast = system: MCF7 breast
NCI-H226 lung = system: NCI-H226 lung
OVCAR-5 ovarian = system: OVCAR-5 ovarian
RPMI-8226 leukemia = system: RPMI-8226 leukemia
SK-MEL-2 melanoma = system: SK-MEL-2 melanoma

Measured: TGI

CSc1nc(C)c(CCCl)c(Cl)n1
49.9 µM: NCI-H522 lung
> 100 µM: 786-0 renal | A498 renal | A549 NSCLC | ACHN renal | BT-549 breast | CAKI-1 renal | CCRF-CEM leukemia | COLO 205 colon | DU-145 prostate | EKVX NSCLC | HCC-2998 colon | HCT-116 colon | HCT-15 colon | HOP-62 NSCLC | HS 578T breast | HT29 colon | IGROV1 ovarian | K-562 leukemia | LOX IMVI melanoma | M14 melanoma | MALME-3M melanoma | MDA-MB-231 breast | MDA-MB-435 | MDA-N | MOLT-4 leukemia | NCI-H23 lung | NCI-H460 lung | NCI/ADR-RES ovarian | OVCAR-3 ovarian | OVCAR-4 ovarian | OVCAR-8 ovarian | PC-3 prostate | RXF 393 renal | SF-268 CNS | SF-295 CNS | SF-539 CNS | SK-MEL-28 melanoma | SK-MEL-5 melanoma | SK-OV-3 ovarian | SN12C renal | SNB-19 CNS | SNB-75 CNS | SW-620 colon | T-47D breast | TK-10 renal | U251 CNS | UACC-257 melanoma | UACC-62 melanoma | UO-31 renal

Clc1ccc(/C=C/c2nc(Cl)c(-c3ccc(Cl)cc3)c(Cl)n2)cc1
84.8 µM: CCRF-CEM leukemia
64.5 µM: SNB-75 CNS
43.2 µM: UO-31 renal
> 100 µM: 786-0 renal | A498 renal | A549 NSCLC | ACHN renal | BT-549 breast | CAKI-1 renal | COLO 205 colon | DU-145 prostate | EKVX NSCLC | HCT-116 colon | HCT-15 colon | HL-60(TB) leukemia | HOP-62 NSCLC | HOP-92 NSCLC | HS 578T breast | HT29 colon | IGROV1 ovarian | K-562 leukemia | KM12 colon | LOX IMVI melanoma | M14 melanoma | MALME-3M melanoma | MCF7 breast | MDA-MB-231 breast | MDA-MB-435 | MDA-N | MOLT-4 leukemia | NCI-H226 lung | NCI-H23 lung | NCI-H460 lung | NCI-H522 lung | NCI/ADR-RES ovarian | OVCAR-3 ovarian | OVCAR-4 ovarian | OVCAR-5 ovarian | OVCAR-8 ovarian | PC-3 prostate | RPMI-8226 leukemia | RXF 393 renal | SF-268 CNS | SF-295 CNS | SF-539 CNS | SK-MEL-2 melanoma | SK-MEL-28 melanoma | SK-MEL-5 melanoma | SK-OV-3 ovarian | SN12C renal | SNB-19 CNS | SW-620 colon | T-47D breast | TK-10 renal | U251 CNS | UACC-257 melanoma | UACC-62 melanoma
